Test results from patent publication US20050255163A1, “Co-grinding process for the preparation of a ternary composition” (priority 2002, published 2005).
Values after ≈ are worked out from the molar mass of the structure shown.

Tests used:
Type in all cases: physicochemical
[1] = DSC enthalpy of fusion and percentage residual crystallinity of co-ground compositions; details: enthalpy of fusion of the active substance as such, before co-grinding
From the text: The compositions obtained by operating according to the examples reported below have been characterised by DSC and from the enthalpy of fusion the percentage residual crystallinity has been calculated.

[2] = Percentage of active substance released under sink conditions (dissolution speed)
Protocol: In FIGS. 5 and 6 are reported respectively the dissolution speed curves under sink conditions (% age of active substance released against time) and the to solubilisation kinetics curves under non sink conditions (concentration of active substance against time) of a hydrophobic drug (DHEA)/hydrophilic carrier combination. The dissolution speed of the DHEA from the ternary composition is markedly greater with respect to that of the DHEA as such, reaching 70% release after 15 minutes and 90% after 60 minutes, against the respective 9% and 20% for DHEA as such. Regarding the kinetics, in the ternary composition, the oversaturation reached by DHEA, which reaches a concentration of over 80 μg/ml in 2 minutes against around 50 μg/ml of DHEA as such, is evident.
(§1) Furthermore, the percentage of active substance released under sink conditions and the solubilisation kinetics under non sink conditions have been determined.

[3] = Solubilisation kinetics under non sink conditions; details: thermodynamic from solid, in 2 minutes, read-out: concentration of DHEA reached (solubilisation kinetics, oversaturation)
Protocol: The dissolution speed of the DHEA from the ternary composition is markedly greater with respect to that of the DHEA as such, reaching 70% release after 15 minutes and 90% after 60 minutes, against the respective 9% and 20% for DHEA as such. Regarding the kinetics, in the ternary composition, the oversaturation reached by DHEA, which reaches a concentration of over 80 μg/ml in 2 minutes against around 50 μg/ml of DHEA as such, is evident.
as §1

Row | SMILES | Active Substance Enthalpy [1] | percentage of active substance (DHEA) released ([2]; after 15 minutes) | percentage of active substance (DHEA) released ([2]; after 60 minutes) | solubility kinetic at 2 min [3]
1 | CC(=O)N[C@@H](CS)C(=O)O [NAC, N-acetyl cystein] | 192.9 J/g |  |  | 
2 | C[C@]12CC[C@H](O)CC1=CC[C@@H]1[C@@H]2CC[C@]2(C)C(=O)CC[C@@H]12 [DHEA, dehydroepiandrosterone] | 100 J/g | 9% | 20% | ~50 µg/mL (≈ 173 µM)
3 | Oc1ccc(C=Cc2cc(O)cc(O)c2)cc1 [Resveratrol, resveratrol] | 317.7 J/g |  |  | 
4 | Cc1cc(O)c(C2CC3CCC2(C)C3(C)C)cc1C (centres unmarked) [Xibornol, xibornol] | 92.8 J/g |  |  | 
5 | CC(=O)OCC(=O)[C@@]1(O)CC[C@H]2[C@@H]3CCC4=CC(=O)CC[C@]4(C)[C@H]3[C@@H](O)C[C@@]21C [HCA, hydrocortisone acetate] | 117.9 J/g |  |  | 
